Results: patent US9770452B2, “Quinoxaline derivatives as GPR6 modulators” (Takeda Pharmaceutical Company Limited, priority 2012, dated 2017)
Where a name gives a salt, the structure may show the parent alone.

Molecular target: T1, GPR6 receptor (Homo sapiens, UniProt P46095)
T1 construct: expressed in transfected cells
Test: Inhibition of cAMP Activity of GPR6 In Vitro Assay (CHO-K1 cells, HTRF cAMP)
Assay type: cell-based
Conditions: compounds of Compound Table 1; inhibition of constitutive cAMP activity of GPR6 expressed in CHO-K1 cells; approximate IC50; read-out: IC50
Protocol: Inhibition of cAMP Activity of GPR6 In Vitro Assay
This cell based assay measures the ability of compounds to inhibit the constitutive cAMP activity of GPR6 receptor expressed in CHO-K1 cells. CHO cells were stably expressed with GPR6 receptor, whose expression is controlled by a tetracycline inducable element. The cells were cultured in medium containing F12K, 10% FBS, 1% Penn/Strep, 200 ug/mL Hygromycin. GPR6 receptor expression was induced for 20 hrs with 1 μg/ml doxycycline (sigma D9891) in growth media. After addition of doxycycline cells were plated at a density of 250-500 cells per well in half-volume black clear bottom plates (Costar) and place in an incubator (37°, 5% C(O)2) for 20 hours prior to cAMP assays.
Culture media was removed from cells and they were washed with 50 μL of Ringer's Buffer (MgCl2 0.047 mg/mL, NaH2PO4 0.18 mg/mL, Na2HPO4 0.1 mg/mL, KCl 0.34 mg/mL, NaHC(O)3 1.26 mg/mL, D-glucose 1.8 mg/mL, NaCl 7 mg/mL; pH=7.4). Compounds suspended in DMSO were diluted in Ringer's Buffer containing 0.5% fatty acid free BSA and incubated on cells for 45 min at […] and 5% C(O)2. After incubation cells were incubated for 10 min at room temp with Eu-cAMP tracer solution from a Perkin Elmer Lance HTRF UltracAMP assay kit (TRF0264). Then ULight™-anti-cAMP solution from the Lance HTRF kit was added and incubated on a shaker at room temp for 1 hour prior to HTRF detection in a BMG PolarStar Omega.
IC50 curves were generated with a four-parameter logistic equation using GraphPad Prism 5.03.

T1 sequence (P46095 whole entry): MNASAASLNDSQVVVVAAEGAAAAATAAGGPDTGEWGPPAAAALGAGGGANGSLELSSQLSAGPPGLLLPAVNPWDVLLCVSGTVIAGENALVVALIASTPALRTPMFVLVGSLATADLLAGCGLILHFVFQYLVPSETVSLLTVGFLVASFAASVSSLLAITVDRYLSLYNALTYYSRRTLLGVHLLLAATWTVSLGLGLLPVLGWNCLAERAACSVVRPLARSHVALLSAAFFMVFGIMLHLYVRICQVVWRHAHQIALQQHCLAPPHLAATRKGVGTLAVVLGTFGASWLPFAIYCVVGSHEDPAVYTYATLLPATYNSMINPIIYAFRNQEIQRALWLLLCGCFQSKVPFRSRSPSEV

Row | Molecule | IC50 [nM]
1 | 3-(4-(2-fluoro-4-methoxybenzyl)piperidin-1-yl)-2-(isopropylamino)pyrido[3,4-b]pyrazine-7-carbonitrile, 2,2,2-trifluoroacetic acid salt [Cpd 636] | 16
2 | CC(C)Nc1nc2cnncc2nc1N1CCC(Oc2ccc(Cl)cc2F)CC1 [Cpd 644, 3-(4-(4-chloro-2-fluorophenoxy)piperidin-1-yl)-N-isopropylpyrazino[2,3-d]pyridazin-2-amine, 2,2,2-trifluoroacetic acid salt] | 7
3 | 3-(4-(2,5-difluorobenzoyl)piperidin-1-yl)-2-(isopropylamino)pyrido[3,4-b]pyrazine-7-carbonitrile, 2,2,2-trifluoroacetic acid salt [Cpd 631] | 6
4 | CC(C)Nc1nc2cnncc2nc1N1CCC(Oc2ccc(F)cc2F)CC1 [Cpd 633, 3-(4-(2,4-difluorophenoxy)piperidin-1-yl)-N-isopropylpyrazino[2,3-d]pyridazin-2-amine, 2,2,2-trifluoroacetic acid salt] | 4
5 | N-cyclopropyl-3-(4-(2,4-difluorobenzyl)piperidin-1-yl)pyrido[3,4-b]pyrazin-2-amine, 2,2,2-trifluoroacetic acid salt [Cpd 414] | 390
6 | N-cyclopropyl-3-(4-((2,4-difluorophenyl)difluoromethyl)piperidin-1-yl)pyrido[3,4-b]pyrazin-2-amine [Cpd 545] | 45
7 | (R)-(2-(cyclopropylamino)-3-(4-((2,4-difluorophenyl)fluoromethyl)piperidin-1-yl)pyrido[3,4-b]pyrazin-7-yl)(morpholino)methanone, 2,2,2-trifluoroacetic acid salt [Cpd 580] | 8
8 | COc1ccc(Nc2nc3ccccc3nc2N2CCN(Cc3cccc(Cl)c3)CC2)cc1 [Cpd 31, 3-(4-(3-chlorobenzyl)piperazin-1-yl)-N-(4-methoxyphenyl)quinoxalin-2-amine, 2,2,2-trifluoroacetic acid salt] | 6140
9 | 2-(cyclopropylamino)-3-(4-(phenylsulfonyl)piperazin-1-yl)quinoxaline-6-carbonitrile [Cpd 162] | 4630
10 | CC(C)Nc1nc2ccccc2nc1N1CCN(Cc2cc(Cl)ccc2Cl)CC1 [Cpd 111, 3-(4-(2,5-dichlorobenzyl)piperazin-1-yl)-N-isopropylquinoxalin-2-amine, 2,2,2-trifluoroacetic acid salt] | 3310
11 | N#Cc1ccc(Nc2nc3ccccc3nc2N2CCN(Cc3cc(Cl)ccc3Cl)CC2)cc1 [Cpd 58, 4-((3-(4-(2,5-dichlorobenzyl)piperazin-1-yl)quinoxalin-2-yl)amino)benzonitrile] | 5530
12 | 3-(4-(5-cyano-2-(dimethylcarbamoyl)benzoyl)piperidin-1-yl)-2-(cyclopropylamino)-N,N-dimethylpyrido[3,4-b]pyrazine-7-carboxamide [Cpd 596] | 26
13 | 3-(4-(2,5-dichlorobenzyl)piperazin-1-yl)-N-(pyridin-4-yl)quinoxalin-2-amine, 2,2,2-trifluoroacetic acid salt [Cpd 214] | 1470
14 | 3-(4-((2-cyanophenyl)sulfonyl)piperazin-1-yl)-2-(cyclopropylamino)quinoxaline-6-carbonitrile, 2,2,2-trifluoroacetic acid salt [Cpd 252] | 2540
15 | 2-(4-(2,4-difluorobenzyl)piperidin-1-yl)-N-(2,2-difluoroethyl)pyrido[3,4-b]pyrazin-3-amine [Cpd 428] | 20
16 | 4-((1-(3-(cyclopropylamino)pyrazino[2,3-d]pyridazin-2-yl)piperidin-4-yl)oxy)-3-fluorophenol [Cpd 623] | 39
17 | N-cyclopropyl-3-(4-((4-(trifluoromethyl)phenyl)sulfonyl)piperazin-1-yl)pyrido[3,4-b]pyrazin-2-amine, 2,2,2-trifluoroacetic acid salt [Cpd 302] | 340
18 | COc1ccc(Br)c(C(=O)N2CCN(c3nc4ccccc4nc3NC3CC3)CC2)c1 [Cpd 85, (2-bromo-5-methoxyphenyl)(4-(3-(cyclopropylamino)quinoxalin-2-yl)piperazin-1-yl)methanone, 2,2,2-trifluoroacetic acid salt] | 7550
19 | 3-(cyclopropylamino)-2-(4-(2,5-dichlorobenzyl)piperazin-1-yl)quinoxaline-5-carbonitrile, 2,2,2-trifluoroacetic acid salt [Cpd 248] | 1850
20 | 2-(cyclopropylamino)-3-(4-(2,4-difluorophenoxy)piperidin-1-yl)-N,N-dimethylpyrido[3,4-b]pyrazine-7-carboxamide [Cpd 597] | 89
21 | N-cyclopropyl-3-(4-(2,5-dichlorobenzyl)piperazin-1-yl)pyrido[3,4-b]pyrazin-2-amine, 2,2,2-trifluoroacetic acid salt [Cpd 134] | 1640
22 | (S)—N-cyclopropyl-3-(4-((2,4-difluorophenyl)fluoromethyl)piperidin-1-yl)pyrazino[2,3-d]pyridazin-2-amine, 2,2,2-trifluoroacetic acid salt [Cpd 594] | 31
23 | 2-(4-(4-chloro-2-fluorophenoxy)piperidin-1-yl)-3-(isopropylamino)quinoxaline-6-carbonitrile, hydrogen chloride salt [Cpd 626] | 90
24 | N-cyclopropyl-3-(4-(2,4-difluorophenoxy)piperidin-1-yl)pyrazino[2,3-d]pyridazin-2-amine, 2,2,2-trifluoroacetic acid salt [Cpd 619] | 14
25 | (S)-(2-(cyclopropylamino)-3-(4-((2,4-difluorophenyl)fluoromethyl)piperidin-1-yl)pyrido[3,4-b]pyrazin-7-yl)(morpholino)methanone, 2,2,2-trifluoroacetic acid salt [Cpd 579] | 10
26 | (S)-2-(cyclopropylamino)-3-(4-((2,4-difluorophenyl)fluoromethyl)piperidin-1-yl)pyrido[3,4-b]pyrazine-7-carbonitrile [Cpd 547] | 16
27 | (S)—N-cyclopropyl-3-(4-((2,4-difluorophenyl)fluoromethyl)piperidin-1-yl)-7-methylpyrido[3,4-b]pyrazin-2-amine, 2,2,2-trifluoroacetic acid salt [Cpd 502] | 1430
28 | Cc1ccc(Nc2nc3ccccc3nc2N2CCN(Cc3cccc(Cl)c3)CC2)cc1 [Cpd 30, 3-(4-(3-chlorobenzyl)piperazin-1-yl)-N-(p-tolyl)quinoxalin-2-amine, 2,2,2-trifluoroacetic acid salt] | 26200
29 | N-cyclopropyl-2-(4-(2,4-difluorobenzyl)piperidin-1-yl)pyrido[3,4-b]pyrazin-3-amine, 2,2,2-trifluoroacetic acid salt [Cpd 427] | 78

Same assay, conditions: compounds of Compound Table 2; inhibition of constitutive cAMP activity of GPR6 expressed in CHO-K1 cells; approximate IC50; read-out: IC50

Row | Molecule | IC50 [nM]
30 | CC1CN(Cc2cc(Cl)ccc2Cl)CCN1c1nc2ccccc2nc1NC1CC1 (stereo not shown) [Compound Table 2: Cpd 7, N-cyclopropyl-3-(4-(2,5-dichlorobenzyl)-2-methylpiperazin-1-yl)quinoxalin-2-amine] | 6640
31 | Cc1cc2nc(NC3CC3)c(C3CCN(Cc4ccc(F)cc4F)CC3)nc2cn1 [Compound Table 2: Cpd 6, N-cyclopropyl-3-(1-(2,4-difluorobenzyl)piperidin-4-yl)-7-methylpyrido[3,4-b]pyrazin-2-amine, 2,2,2-trifluoroacetic acid salt] | 530
